From ChEMBL document CHEMBL1137026, “Design and synthesis of novel Cdc25A-inhibitors having phosphate group as a hydrophilic residue” (Bioorg Med Chem Lett, 2004) come the findings set out here.

Broadly, the pIC50 is the negative decadic logarithm of the IC50, by convention in mol/L.

Test [1] addresses T1, M-phase inducer phosphatase 1 (Homo sapiens, UniProt P30304).
T1 sequence (P30304 whole entry): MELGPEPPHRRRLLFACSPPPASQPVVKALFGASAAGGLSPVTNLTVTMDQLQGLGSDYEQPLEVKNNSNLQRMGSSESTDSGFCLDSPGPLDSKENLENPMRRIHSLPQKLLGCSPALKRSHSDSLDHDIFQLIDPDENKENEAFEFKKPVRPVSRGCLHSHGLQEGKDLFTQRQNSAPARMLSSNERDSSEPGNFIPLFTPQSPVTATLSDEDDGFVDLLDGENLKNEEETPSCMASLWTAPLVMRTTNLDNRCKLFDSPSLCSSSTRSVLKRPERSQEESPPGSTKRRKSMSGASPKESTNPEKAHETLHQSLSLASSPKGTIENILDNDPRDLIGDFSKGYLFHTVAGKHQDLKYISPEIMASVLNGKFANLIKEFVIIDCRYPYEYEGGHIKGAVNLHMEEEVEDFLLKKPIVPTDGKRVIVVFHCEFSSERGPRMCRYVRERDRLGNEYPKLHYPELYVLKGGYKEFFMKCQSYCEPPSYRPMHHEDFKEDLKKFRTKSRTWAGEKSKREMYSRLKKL
In words: Inhibitory concentration against dual-specificity phosphatase Cell division cycle (Cdc) 25A.

The target in test [2] is T2, M-phase inducer phosphatase 2 (Homo sapiens, UniProt P30305).
T2 sequence (P30305 whole entry): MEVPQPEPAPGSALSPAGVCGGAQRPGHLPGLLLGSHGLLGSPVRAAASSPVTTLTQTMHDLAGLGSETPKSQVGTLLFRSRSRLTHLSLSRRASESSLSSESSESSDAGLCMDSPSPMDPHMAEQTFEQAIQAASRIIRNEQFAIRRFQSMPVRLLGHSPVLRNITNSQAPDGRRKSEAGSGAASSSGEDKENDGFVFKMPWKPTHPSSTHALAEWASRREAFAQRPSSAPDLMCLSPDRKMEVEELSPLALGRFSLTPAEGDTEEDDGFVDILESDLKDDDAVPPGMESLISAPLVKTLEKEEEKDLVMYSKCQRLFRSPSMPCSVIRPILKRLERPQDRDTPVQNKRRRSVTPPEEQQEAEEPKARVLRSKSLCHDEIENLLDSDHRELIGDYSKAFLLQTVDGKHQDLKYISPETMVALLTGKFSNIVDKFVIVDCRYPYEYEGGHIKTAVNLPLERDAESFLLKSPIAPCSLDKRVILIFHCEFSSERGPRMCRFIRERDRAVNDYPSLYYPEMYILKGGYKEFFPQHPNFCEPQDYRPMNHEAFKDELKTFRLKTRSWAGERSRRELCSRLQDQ
In words: Inhibitory concentration against dual-specificity phosphatase Cell division cycle (Cdc) 25B.

pIC50: −log10 of the molar value.

Take `CC(C)CCC[C@@H](C)[C@H]1CCC2[C@@](C)(CO)CCC[C@@]21C` (some centres not stated): the pIC50 is 4.64 in test [1] and 5.35 in test [2].

On to `CC(C)CCC[C@@H](C)[C@H]1CCC2[C@@](C)(CCOP(=O)(O)O)CCC[C@@]21C` (some centres not stated), for which the pIC50 in test [1] is 4.61; in test [2] it was 5.17.

In the case of `CC(C)CCC[C@@H](C)[C@H]1CCC2[C@@](C)(CCO)CCC[C@@]21C` (some centres not stated), the negative-log IC50 (pIC50) was 5.16 in test [1] and 5.89 in test [2].

Turning to `CC(C)CCC[C@@H](C)[C@H]1CCC2[C@@H](O)CCC[C@@]21C` (some centres not stated), the pIC50 was 5.41 in test [1] and 5.24 in test [2].

Consider `CC(C)CCC[C@@H](C)[C@H]1CCC2[C@](C)(CCO)CCC[C@@]21C` (some centres not stated), for which the pIC50 in test [1] was 5.26; in test [2], 5.77.

As for `CC(C)CCC[C@@H](C)[C@H]1CCC2[C@](C)(CCOP(=O)(O)O)CCC[C@@]21C` (some centres not stated), the negative-log IC50 (pIC50) was 5.26 in test [1] and 5.92 in test [2].

For `CC(C)CCC[C@@H](C)[C@H]1CCC2[C@@](C)(COP(=O)(O)O)CCC[C@@]21C` (some centres not stated), the pIC50 is 6.15 in test [1] and 5.43 in test [2].

As to `CC(C)CCC[C@@H](C)[C@H]1CCC2[C@](C)(CO)CCC[C@@]21C` (some centres not stated), the negative logarithm of the IC50 (pIC50) in test [1] was 5.07; in test [2] it was 5.48.

For the molecule `CC(C)CCC[C@@H](C)[C@H]1CCC2/C(=C/C(=O)O)CCC[C@@]21C` (some centres not stated), the negative logarithm of the IC50 (pIC50) in test [1] was 4.76; in test [2], 5.23.

For the molecule `CC(C)CCC[C@@H](C)[C@H]1CCC2[C@@H](OP(=O)(O)O)CCC[C@@]21C` (some centres not stated), the pIC50 in test [1] was 5.09; in test [2] it was 5.30.

`CC(C)CCC[C@@H](C)[C@H]1CCC2C(C)(COP(=O)(O)O)CCC[C@@]21C` (single isomer, unassigned): the values for the negative-log IC50 (pIC50) in test [1] and in test [2] were 6.05 and 5.52, respectively.
